{"source": "paper PMC8333425", "about": "“Discovery of a dual Ras and ARF6 inhibitor from a GPCR endocytosis screen” (Nature Communications, 2021)", "assay_in_all_cases": "KINOMEscan kinase binding assay", "key": {"[1]": {"target": "T1, 384 kinases from the human genome (Homo sapiens, UniProt Q00537)", "T1 construct": "purchased Eurofin/DiscoverX", "settings": "kinase PCTK2 (Entrez CDK17)", "outline": "(§1)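 Competition binding (KINOMEscan) across 384 human kinases with compound at 10 µM. Ligand binding was expressed relative to DMSO (100%) as the average of duplicates from one experiment. S(10) selectivity score was derived.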"}, "[2]": {"target": "T2, 384 kinases from the human genome (Homo sapiens, UniProt Q05397)", "T2 construct": "purchased Eurofin/DiscoverX", "settings": "kinase FAK (Entrez PTK2)", "outline": "as §1"}, "[3]": {"target": "T3, 384 kinases from the human genome (Homo sapiens, UniProt Q16288)", "T3 construct": "purchased Eurofin/DiscoverX", "settings": "kinase TRKC (Entrez NTRK3)", "outline": "as §1"}, "[4]": {"target": "T4, 384 kinases from the human genome (Homo sapiens, UniProt Q9BXA7)", "T4 construct": "purchased Eurofin/DiscoverX", "settings": "kinase TSSK1B (Entrez TSSK1B)", "outline": "as §1"}, "[5]": {"target": "T5, 384 kinases from the human genome (Homo sapiens, UniProt P20794)", "T5 construct": "purchased Eurofin/DiscoverX", "settings": "kinase MAK (Entrez MAK)", "outline": "as §1"}, "[6]": {"target": "T6, 384 kinases from the human genome (Homo sapiens, UniProt P51956)", "T6 construct": "purchased Eurofin/DiscoverX", "T6 sequence (P51956 whole entry)": "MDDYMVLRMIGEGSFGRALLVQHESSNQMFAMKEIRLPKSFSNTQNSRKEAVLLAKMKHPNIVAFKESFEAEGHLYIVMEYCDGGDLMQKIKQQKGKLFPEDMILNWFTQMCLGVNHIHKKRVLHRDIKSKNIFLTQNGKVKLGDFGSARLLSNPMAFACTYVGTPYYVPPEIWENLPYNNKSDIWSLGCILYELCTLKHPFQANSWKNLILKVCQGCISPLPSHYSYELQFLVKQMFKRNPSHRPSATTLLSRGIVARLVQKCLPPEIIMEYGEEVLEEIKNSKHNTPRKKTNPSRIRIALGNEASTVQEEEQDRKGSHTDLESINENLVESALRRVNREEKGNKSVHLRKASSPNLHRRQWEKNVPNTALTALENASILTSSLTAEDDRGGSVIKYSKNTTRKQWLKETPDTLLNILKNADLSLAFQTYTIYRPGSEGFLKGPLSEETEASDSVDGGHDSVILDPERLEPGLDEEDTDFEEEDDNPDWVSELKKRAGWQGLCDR", "settings": "kinase NEK3 (Entrez NEK3)", "outline": "as §1"}, "[7]": {"target": "T7, 384 kinases from the human genome (Homo sapiens, UniProt P06213)", "T7 construct": "purchased Eurofin/DiscoverX", "settings": "kinase INSR (Entrez INSR)", "outline": "as §1"}, "[8]": {"target": "T8, 384 kinases from the human genome (Homo sapiens, UniProt O75116)", "T8 construct": "purchased Eurofin/DiscoverX", "settings": "kinase ROCK2 (Entrez ROCK2)", "outline": "as §1"}, "[9]": {"target": "T9, 384 kinases from the human genome (Homo sapiens, UniProt Q8TD08)", "T9 construct": "purchased Eurofin/DiscoverX", "T9 sequence (Q8TD08 whole entry)": "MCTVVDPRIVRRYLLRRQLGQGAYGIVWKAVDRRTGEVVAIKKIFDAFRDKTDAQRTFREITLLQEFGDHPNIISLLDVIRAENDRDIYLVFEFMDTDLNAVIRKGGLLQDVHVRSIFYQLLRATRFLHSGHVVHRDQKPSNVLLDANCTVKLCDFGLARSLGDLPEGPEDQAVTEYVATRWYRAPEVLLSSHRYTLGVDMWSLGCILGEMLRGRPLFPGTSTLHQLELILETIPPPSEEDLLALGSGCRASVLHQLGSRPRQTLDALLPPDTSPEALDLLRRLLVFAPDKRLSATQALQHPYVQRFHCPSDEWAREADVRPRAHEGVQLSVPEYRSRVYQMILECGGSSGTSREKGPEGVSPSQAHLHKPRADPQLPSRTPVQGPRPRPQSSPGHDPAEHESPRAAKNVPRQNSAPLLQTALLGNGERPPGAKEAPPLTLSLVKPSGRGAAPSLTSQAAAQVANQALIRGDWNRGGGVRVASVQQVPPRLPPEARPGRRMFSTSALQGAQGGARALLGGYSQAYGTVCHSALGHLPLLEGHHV", "settings": "kinase ERK8 (Entrez MAPK15)", "outline": "as §1"}, "[10]": {"target": "T10, 384 kinases from the human genome (Homo sapiens, UniProt Q8TD19)", "T10 construct": "purchased Eurofin/DiscoverX", "settings": "kinase NEK9 (Entrez NEK9)", "outline": "as §1"}, "[11]": {"target": "T11, 384 kinases from the human genome (Homo sapiens, UniProt Q9BYT3)", "T11 construct": "purchased Eurofin/DiscoverX", "settings": "kinase STK33 (Entrez STK33)", "outline": "as §1"}, "[12]": {"target": "T12, 384 kinases from the human genome (Homo sapiens, UniProt O00141)", "T12 construct": "purchased Eurofin/DiscoverX", "settings": "kinase SGK (Entrez SGK1)", "outline": "as §1"}, "[13]": {"target": "T13, 384 kinases from the human genome (Homo sapiens, UniProt P51957)", "T13 construct": "purchased Eurofin/DiscoverX", "settings": "kinase NEK4 (Entrez NEK4)", "outline": "as §1"}, "[14]": {"target": "T14, 384 kinases from the human genome (Homo sapiens, UniProt Q16620)", "T14 construct": "purchased Eurofin/DiscoverX", "settings": "kinase TRKB (Entrez NTRK2)", "outline": "as §1"}, "[15]": {"target": "T15, 384 kinases from the human genome (Homo sapiens, UniProt Q04771)", "T15 construct": "purchased Eurofin/DiscoverX", "T15 sequence (Q04771 21-509)": "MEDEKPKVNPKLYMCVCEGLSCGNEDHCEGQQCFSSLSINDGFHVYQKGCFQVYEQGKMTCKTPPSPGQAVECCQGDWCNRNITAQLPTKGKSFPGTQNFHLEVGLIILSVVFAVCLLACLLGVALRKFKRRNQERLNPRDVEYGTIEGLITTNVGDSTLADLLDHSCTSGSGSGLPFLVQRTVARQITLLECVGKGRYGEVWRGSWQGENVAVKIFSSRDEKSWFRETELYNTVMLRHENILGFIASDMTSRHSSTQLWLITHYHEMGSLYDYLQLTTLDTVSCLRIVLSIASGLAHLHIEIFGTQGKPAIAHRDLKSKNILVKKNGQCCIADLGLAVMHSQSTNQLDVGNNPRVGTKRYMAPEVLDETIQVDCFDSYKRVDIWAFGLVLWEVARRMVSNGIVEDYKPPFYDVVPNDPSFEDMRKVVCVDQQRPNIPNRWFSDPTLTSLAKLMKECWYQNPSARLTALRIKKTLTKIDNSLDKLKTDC", "settings": "kinase ACVR1 (Entrez ACVR1)", "outline": "as §1"}, "[16]": {"target": "T16, 384 kinases from the human genome (Homo sapiens, UniProt Q07002)", "T16 construct": "purchased Eurofin/DiscoverX", "settings": "kinase PCTK3 (Entrez CDK18)", "outline": "as §1"}, "[17]": {"target": "T17, 384 kinases from the human genome (Homo sapiens, UniProt P04049)", "T17 construct": "purchased Eurofin/DiscoverX", "T17 sequence (P04049 whole entry)": "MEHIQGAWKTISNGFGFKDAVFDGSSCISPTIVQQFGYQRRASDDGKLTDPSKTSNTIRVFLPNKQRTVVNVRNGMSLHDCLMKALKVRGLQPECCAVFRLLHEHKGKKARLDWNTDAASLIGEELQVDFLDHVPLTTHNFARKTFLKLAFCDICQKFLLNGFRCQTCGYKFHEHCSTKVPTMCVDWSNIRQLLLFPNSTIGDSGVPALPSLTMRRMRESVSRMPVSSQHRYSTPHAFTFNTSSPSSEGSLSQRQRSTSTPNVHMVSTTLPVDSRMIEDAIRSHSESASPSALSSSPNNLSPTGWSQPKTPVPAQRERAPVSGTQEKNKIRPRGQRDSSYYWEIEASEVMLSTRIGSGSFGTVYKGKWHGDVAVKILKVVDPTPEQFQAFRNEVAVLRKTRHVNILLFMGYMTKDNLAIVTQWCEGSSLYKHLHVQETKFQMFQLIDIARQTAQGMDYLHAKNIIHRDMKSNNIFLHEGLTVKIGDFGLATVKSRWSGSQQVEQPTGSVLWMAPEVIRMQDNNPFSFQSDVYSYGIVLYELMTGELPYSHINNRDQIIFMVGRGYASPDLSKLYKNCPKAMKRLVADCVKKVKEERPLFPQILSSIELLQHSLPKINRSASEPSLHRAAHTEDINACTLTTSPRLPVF", "settings": "kinase RAF1 (Entrez RAF1)", "outline": "as §1"}, "[18]": {"target": "T18, 384 kinases from the human genome (Homo sapiens, UniProt P00519)", "T18 construct": "purchased Eurofin/DiscoverX", "T18 sequence (P00519 whole entry)": "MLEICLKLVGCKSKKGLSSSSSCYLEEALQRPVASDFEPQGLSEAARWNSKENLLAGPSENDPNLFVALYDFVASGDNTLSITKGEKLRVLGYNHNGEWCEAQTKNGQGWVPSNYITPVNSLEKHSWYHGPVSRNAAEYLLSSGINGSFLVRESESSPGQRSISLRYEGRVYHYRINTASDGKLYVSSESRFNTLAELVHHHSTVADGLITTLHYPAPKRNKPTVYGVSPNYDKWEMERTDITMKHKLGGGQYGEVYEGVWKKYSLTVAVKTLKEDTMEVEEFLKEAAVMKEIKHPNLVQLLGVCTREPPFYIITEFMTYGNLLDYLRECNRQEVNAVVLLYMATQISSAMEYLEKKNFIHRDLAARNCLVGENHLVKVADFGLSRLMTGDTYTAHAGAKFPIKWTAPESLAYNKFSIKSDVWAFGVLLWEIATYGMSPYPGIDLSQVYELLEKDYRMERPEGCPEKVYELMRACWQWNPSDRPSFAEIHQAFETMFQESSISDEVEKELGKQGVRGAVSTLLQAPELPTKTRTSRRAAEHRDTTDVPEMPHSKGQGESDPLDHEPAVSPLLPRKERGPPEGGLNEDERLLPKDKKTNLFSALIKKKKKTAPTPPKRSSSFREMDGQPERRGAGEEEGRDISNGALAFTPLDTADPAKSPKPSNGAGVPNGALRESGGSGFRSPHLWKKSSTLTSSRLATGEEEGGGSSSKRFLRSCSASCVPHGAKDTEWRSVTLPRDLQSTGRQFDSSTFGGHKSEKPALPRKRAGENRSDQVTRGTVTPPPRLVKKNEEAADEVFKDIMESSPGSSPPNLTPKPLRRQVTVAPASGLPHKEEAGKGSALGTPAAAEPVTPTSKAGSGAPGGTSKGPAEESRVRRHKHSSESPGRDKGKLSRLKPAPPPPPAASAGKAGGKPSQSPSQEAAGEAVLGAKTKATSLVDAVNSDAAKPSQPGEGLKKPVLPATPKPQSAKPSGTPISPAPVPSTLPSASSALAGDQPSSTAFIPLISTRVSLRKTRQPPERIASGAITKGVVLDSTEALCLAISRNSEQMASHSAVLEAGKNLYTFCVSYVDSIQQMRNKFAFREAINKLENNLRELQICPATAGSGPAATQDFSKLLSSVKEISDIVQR", "settings": "kinase ABL1-phosphorylated (Entrez ABL1)", "outline": "as §1"}, "[19]": {"target": "T19, 384 kinases from the human genome (Homo sapiens, UniProt O94768)", "T19 construct": "purchased Eurofin/DiscoverX", "settings": "kinase DRAK2 (Entrez STK17B)", "outline": "as §1"}, "[20]": {"target": "T20, 384 kinases from the human genome (Homo sapiens, UniProt Q8N568)", "T20 construct": "purchased Eurofin/DiscoverX", "settings": "kinase DCAMKL2 (Entrez DCLK2)", "outline": "as §1"}, "[21]": {"target": "T21, 384 kinases from the human genome (Homo sapiens, UniProt Q8IU85)", "T21 construct": "purchased Eurofin/DiscoverX", "settings": "kinase CAMK1D (Entrez CAMK1D)", "outline": "as §1"}, "[22]": {"target": "T22, 384 kinases from the human genome (Homo sapiens, UniProt Q16513)", "T22 construct": "purchased Eurofin/DiscoverX", "T22 sequence (Q16513 whole entry)": "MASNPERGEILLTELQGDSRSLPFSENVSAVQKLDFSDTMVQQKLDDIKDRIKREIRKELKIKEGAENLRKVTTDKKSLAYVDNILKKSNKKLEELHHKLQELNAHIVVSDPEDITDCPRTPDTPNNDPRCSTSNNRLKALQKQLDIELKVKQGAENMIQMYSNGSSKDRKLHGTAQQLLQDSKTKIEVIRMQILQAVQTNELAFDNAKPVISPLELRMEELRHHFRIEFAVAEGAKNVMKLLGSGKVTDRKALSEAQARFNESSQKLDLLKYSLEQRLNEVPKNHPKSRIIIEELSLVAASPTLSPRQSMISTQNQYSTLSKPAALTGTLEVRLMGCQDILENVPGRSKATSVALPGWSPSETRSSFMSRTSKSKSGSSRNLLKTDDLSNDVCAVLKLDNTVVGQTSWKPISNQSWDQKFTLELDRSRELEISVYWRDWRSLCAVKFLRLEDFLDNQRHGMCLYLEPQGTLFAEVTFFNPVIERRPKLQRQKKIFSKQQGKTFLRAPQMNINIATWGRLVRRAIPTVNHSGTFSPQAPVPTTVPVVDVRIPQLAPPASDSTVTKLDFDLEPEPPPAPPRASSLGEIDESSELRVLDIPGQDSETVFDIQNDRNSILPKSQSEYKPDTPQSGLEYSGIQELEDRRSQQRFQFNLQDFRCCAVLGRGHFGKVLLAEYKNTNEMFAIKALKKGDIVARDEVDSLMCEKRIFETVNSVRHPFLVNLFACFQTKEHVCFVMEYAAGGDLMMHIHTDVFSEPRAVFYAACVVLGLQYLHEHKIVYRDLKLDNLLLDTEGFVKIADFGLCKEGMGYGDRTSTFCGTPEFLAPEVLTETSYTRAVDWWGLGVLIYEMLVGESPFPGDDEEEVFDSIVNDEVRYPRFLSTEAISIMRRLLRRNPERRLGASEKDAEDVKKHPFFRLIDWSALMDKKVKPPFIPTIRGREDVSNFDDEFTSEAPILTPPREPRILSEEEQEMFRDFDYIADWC", "settings": "kinase PKN2 (Entrez PKN2)", "outline": "as §1"}, "[23]": {"target": "T23, 384 kinases from the human genome (Homo sapiens, UniProt Q16659)", "T23 construct": "purchased Eurofin/DiscoverX", "T23 sequence (Q16659 whole entry)": "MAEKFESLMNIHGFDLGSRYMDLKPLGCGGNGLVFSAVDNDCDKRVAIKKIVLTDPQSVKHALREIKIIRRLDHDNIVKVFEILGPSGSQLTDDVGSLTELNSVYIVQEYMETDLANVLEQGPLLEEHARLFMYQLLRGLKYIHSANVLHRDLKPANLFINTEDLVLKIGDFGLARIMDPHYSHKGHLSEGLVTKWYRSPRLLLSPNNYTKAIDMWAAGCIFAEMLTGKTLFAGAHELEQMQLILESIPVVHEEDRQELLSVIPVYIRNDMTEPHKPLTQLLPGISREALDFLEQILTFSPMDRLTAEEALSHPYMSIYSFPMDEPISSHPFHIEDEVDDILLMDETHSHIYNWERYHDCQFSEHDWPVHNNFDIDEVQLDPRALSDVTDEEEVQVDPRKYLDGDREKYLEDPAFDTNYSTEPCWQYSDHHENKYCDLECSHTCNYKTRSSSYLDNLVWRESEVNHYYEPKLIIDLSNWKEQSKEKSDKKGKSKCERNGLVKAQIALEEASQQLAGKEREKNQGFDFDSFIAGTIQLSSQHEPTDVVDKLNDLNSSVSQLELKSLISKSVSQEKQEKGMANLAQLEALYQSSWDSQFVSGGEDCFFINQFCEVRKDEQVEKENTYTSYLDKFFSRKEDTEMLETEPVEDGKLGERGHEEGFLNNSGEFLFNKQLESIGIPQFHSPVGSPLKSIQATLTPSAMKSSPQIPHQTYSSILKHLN", "settings": "kinase ERK3 (Entrez MAPK6)", "outline": "as §1"}, "[24]": {"target": "T24, 384 kinases from the human genome (Homo sapiens, UniProt O15075)", "T24 construct": "purchased Eurofin/DiscoverX", "settings": "kinase DCAMKL1 (Entrez DCLK1)", "outline": "as §1"}, "[25]": {"target": "T25, 384 kinases from the human genome (Homo sapiens, UniProt Q12866)", "T25 construct": "purchased Eurofin/DiscoverX", "settings": "kinase MERTK (Entrez MERTK)", "outline": "as §1"}, "[26]": {"target": "T26, 384 kinases from the human genome (Homo sapiens, UniProt Q9UEW8)", "T26 construct": "purchased Eurofin/DiscoverX", "settings": "kinase STK39 (Entrez STK39)", "outline": "as §1"}}, "data": [{"smiles": "CC(C)C(=O)N1CCN(c2ccc(NC(=O)c3cc4ccccc4o3)cc2Cl)CC1", "note": "[Compound 21]", "values": [{"measurement": "Percent Control", "setting": "[1]", "value": 99, "unit": "%"}, {"measurement": "Percent Control", "setting": "[2]", "value": 100, "unit": "%"}, {"measurement": "Percent Control", "setting": "[3]", "value": 24, "unit": "%"}, {"measurement": "Percent Control", "setting": "[4]", "value": 100, "unit": "%"}, {"measurement": "Percent Control", "setting": "[5]", "value": 84, "unit": "%"}, {"measurement": "Percent Control", "setting": "[6]", "value": 100, "unit": "%"}, {"measurement": "Percent Control", "setting": "[7]", "value": 82, "unit": "%"}, {"measurement": "Percent Control", "setting": "[8]", "value": 80, "unit": "%"}, {"measurement": "Percent Control", "setting": "[9]", "value": 100, "unit": "%"}, {"measurement": "Percent Control", "setting": "[10]", "value": 100, "unit": "%"}, {"measurement": "Percent Control", "setting": "[11]", "value": 100, "unit": "%"}, {"measurement": "Percent Control", "setting": "[12]", "value": 100, "unit": "%"}, {"measurement": "Percent Control", "setting": "[13]", "value": 98, "unit": "%"}, {"measurement": "Percent Control", "setting": "[14]", "value": 55, "unit": "%"}, {"measurement": "Percent Control", "setting": "[15]", "value": 70, "unit": "%"}, {"measurement": "Percent Control", "setting": "[16]", "value": 96, "unit": "%"}, {"measurement": "Percent Control", "setting": "[17]", "value": 79, "unit": "%"}, {"measurement": "Percent Control", "setting": "[18]", "value": 89, "unit": "%"}, {"measurement": "Percent Control", "setting": "[19]", "value": 94, "unit": "%"}, {"measurement": "Percent Control", "setting": "[20]", "value": 99, "unit": "%"}, {"measurement": "Percent Control", "setting": "[21]", "value": 94, "unit": "%"}, {"measurement": "Percent Control", "setting": "[22]", "value": 100, "unit": "%"}, {"measurement": "Percent Control", "setting": "[23]", "value": 90, "unit": "%"}, {"measurement": "Percent Control", "setting": "[24]", "value": 76, "unit": "%"}, {"measurement": "Percent Control", "setting": "[25]", "value": 70, "unit": "%"}, {"measurement": "Percent Control", "setting": "[26]", "value": 100, "unit": "%"}]}]}
